Data on 10 molecules can be found in PubChem BioAssay (NCI).

Test systems include KM12 colon; RPMI-8226 leukemia; EKVX NSCLC; SF-268 CNS; HCC-2998 colon; T-47D breast; RXF 393 renal; OVCAR-3 ovarian; UACC-62 melanoma; OVCAR-5 ovarian.
Common to all, as to assay: growth of human tumour cells (NCI), 48 h

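Five concentrations, 48 hours, 96-well plates. At the GI50, growth is halved. TGI is the concentration that stops growth completely.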

Regarding `CNCc1ccc(-c2[nH]c3cc(F)cc4c3c2CCNC4=O)cc1`, the GI50 in the assay on KM12 colon is 20 µM; with RPMI-8226 leukemia, 23.7 µM; in the assay on EKVX NSCLC, 26.1 µM; with SF-268 CNS, 22.8 µM; in the assay on HCC-2998 colon, 16.5 µM; with T-47D breast it was 16.8 µM. The GI50 in the assay on RXF 393 renal was 12.3 µM; in the assay with OVCAR-3 ovarian, 19.9 µM; with UACC-62 melanoma it was 15 µM; in the assay with OVCAR-5 ovarian it was 19.1 µM. The TGI with KM12 colon is 45.3 µM; with RPMI-8226 leukemia it was 73.3 µM; with EKVX NSCLC it was > 83.1 µM; in the assay with SF-268 CNS it was 66 µM; in the assay with HCC-2998 colon it was 35.6 µM; in the assay with T-47D breast, 55 µM. In addition, the TGI in the assay with RXF 393 renal was 26.2 µM; in the assay with OVCAR-3 ovarian it was 47.2 µM; with UACC-62 melanoma it was 29.8 µM; with OVCAR-5 ovarian, 55.5 µM.
For `C#CC#CC#CC#CC#CC#CC#CC#CC[C@@H]1OC[C@@H](COC(=O)O[C@@H](C(=O)O[C@H]2C[C@@]3(O)[C@@H](OC(=O)c4ccccc4)[C@@H]4[C@]5(OC(C)=O)CO[C@@H]5C[C@H](O)[C@@]4(C)C(=O)[C@H](OC(C)=O)C(=C2C)C3(C)C)[C@@H](NC(=O)c2ccccc2)c2ccccc2)O1`, the GI50 in the assay with KM12 colon is 0.191 µM; with RPMI-8226 leukemia it was 0.109 µM; in the assay on EKVX NSCLC it was 2.25 µM; with SF-268 CNS, 0.593 µM; in the assay with HCC-2998 colon, 0.289 µM; in the assay on T-47D breast, 0.335 µM. Also, the GI50 in the assay with RXF 393 renal is 0.471 µM; in the assay on OVCAR-3 ovarian it was 0.142 µM; in the assay on UACC-62 melanoma, 0.815 µM; in the assay on OVCAR-5 ovarian, 0.333 µM. Besides, the TGI with KM12 colon is > 33.3 µM; in the assay with RPMI-8226 leukemia, > 33.3 µM; with EKVX NSCLC, > 33.3 µM; in the assay on SF-268 CNS, > 33.3 µM; in the assay with HCC-2998 colon, > 17.5 µM; with T-47D breast, > 33.3 µM. The TGI with RXF 393 renal was 2.39 µM; in the assay on UACC-62 melanoma, > 33.3 µM; in the assay on OVCAR-5 ovarian, > 33.3 µM.
As to `NC(=O)c1ncn(C2OC(CO)C(O)C2O)c1N` (centres undefined), the GI50 in the assay with KM12 colon, with RPMI-8226 leukemia, with EKVX NSCLC, in the assay on SF-268 CNS, in the assay with HCC-2998 colon and in the assay on T-47D breast was > 100 µM in each case. The GI50 with RXF 393 renal, in the assay on OVCAR-3 ovarian, in the assay with UACC-62 melanoma and with OVCAR-5 ovarian was > 100 µM in each case. Further, the TGI with KM12 colon, in the assay with RPMI-8226 leukemia, in the assay with EKVX NSCLC, in the assay on SF-268 CNS, in the assay on HCC-2998 colon and in the assay with T-47D breast was > 100 µM each time. For the same molecule, the TGI in the assay with RXF 393 renal, with OVCAR-3 ovarian, in the assay on UACC-62 melanoma and with OVCAR-5 ovarian was > 100 µM in each case.
As for `COc1ccc(OCC(O)CN2CCN(c3ccc(Cl)cc3)CC2)cc1` (centres undefined), the GI50 in the assay with KM12 colon was > 100 µM; in the assay with RPMI-8226 leukemia, > 100 µM; in the assay with EKVX NSCLC, 9.82 µM; with SF-268 CNS, 80.6 µM; in the assay with HCC-2998 colon, > 100 µM; in the assay with T-47D breast, > 100 µM. The GI50 in the assay on RXF 393 renal is 79.1 µM; with OVCAR-3 ovarian, > 100 µM; with UACC-62 melanoma, > 100 µM; with OVCAR-5 ovarian, > 100 µM. The TGI in the assay with KM12 colon, in the assay on RPMI-8226 leukemia, in the assay on EKVX NSCLC, in the assay on SF-268 CNS, with HCC-2998 colon and in the assay with T-47D breast was > 100 µM each time. Moreover, the TGI in the assay with RXF 393 renal, in the assay on OVCAR-3 ovarian, with UACC-62 melanoma and in the assay with OVCAR-5 ovarian was > 100 µM each time.
For the molecule `C=C(Cn1c2ccccc2c(=O)c2ccccc21)c1ccc(C(=O)Nc2ccccc2N)cc1`, the GI50 is 2.43 µM in the assay with KM12 colon; 0.36 µM in the assay with RPMI-8226 leukemia; > 21.5 µM in the assay with EKVX NSCLC; 5.74 µM with SF-268 CNS; 3.67 µM in the assay with HCC-2998 colon; 2.8 µM in the assay with T-47D breast. The GI50 was > 100 µM with RXF 393 renal, 6.5 µM in the assay on OVCAR-3 ovarian, > 100 µM in the assay with UACC-62 melanoma and > 100 µM in the assay with OVCAR-5 ovarian. In addition, the TGI with KM12 colon was > 100 µM; in the assay on RPMI-8226 leukemia it was 3.06 µM; in the assay on EKVX NSCLC, > 100 µM; in the assay with SF-268 CNS, > 100 µM; in the assay with HCC-2998 colon, > 61.2 µM; in the assay on T-47D breast, > 80 µM. Besides, the TGI with RXF 393 renal, in the assay on OVCAR-3 ovarian, in the assay on UACC-62 melanoma and in the assay with OVCAR-5 ovarian was > 100 µM each time.
On to `CCN1CCN(c2nc(NNC(=O)c3ccccc3)nc(N3CCN(C(c4ccccc4)c4ccccc4)CC3)n2)CC1`, for which the GI50 was 3.42 µM in the assay on KM12 colon; 1.65 µM in the assay on RPMI-8226 leukemia; 10.3 µM with EKVX NSCLC; 11.6 µM with SF-268 CNS; 1.95 µM in the assay with HCC-2998 colon; 3.16 µM with T-47D breast. Also, the GI50 with RXF 393 renal is 2.56 µM; in the assay with OVCAR-3 ovarian, 3.43 µM; in the assay on UACC-62 melanoma, 1.96 µM; in the assay on OVCAR-5 ovarian it was 6.03 µM. Further, the TGI in the assay on KM12 colon worked out at 11.8 µM; with RPMI-8226 leukemia, 4.1 µM; in the assay with EKVX NSCLC it was 30 µM; in the assay on SF-268 CNS, 32.7 µM; in the assay with HCC-2998 colon, 4.08 µM; with T-47D breast it was 31.2 µM. Moreover, the TGI in the assay on RXF 393 renal turned out to be 7.57 µM; in the assay on OVCAR-3 ovarian, 13.2 µM; in the assay on UACC-62 melanoma it was 4.29 µM; with OVCAR-5 ovarian it was 21.4 µM.
As to `COc1ccc(/C(CC2OC(=O)c3ccccc32)=N\NC(N)=O)cc1` (centres undefined), the TGI with KM12 colon, with RPMI-8226 leukemia, in the assay with EKVX NSCLC, in the assay on SF-268 CNS, in the assay on HCC-2998 colon and in the assay on T-47D breast was > 100 µM in each case. The TGI with RXF 393 renal, with OVCAR-3 ovarian, with UACC-62 melanoma and with OVCAR-5 ovarian was > 100 µM each time.
Turning to `Cn1ccnc1C(=O)/C=C/c1ccc(C(=O)Nc2c(F)c(F)c(F)c(F)c2F)cc1`, the GI50 with KM12 colon is 1.14 µM; in the assay on RPMI-8226 leukemia it was 0.505 µM; in the assay on EKVX NSCLC, 2.36 µM; with SF-268 CNS it was 1.81 µM; with HCC-2998 colon, 1.64 µM; in the assay on T-47D breast, 1.29 µM. Also, the GI50 in the assay with RXF 393 renal is 1.66 µM; with OVCAR-3 ovarian it was 1.4 µM; in the assay on UACC-62 melanoma it was 2.08 µM; in the assay with OVCAR-5 ovarian, 1.82 µM. For the same molecule, the TGI stood at 2.71 µM in the assay on KM12 colon; 2.54 µM with RPMI-8226 leukemia; 5.85 µM in the assay on EKVX NSCLC; 4.42 µM in the assay on SF-268 CNS; 3.14 µM in the assay with HCC-2998 colon; 3.4 µM with T-47D breast. The TGI in the assay on RXF 393 renal was 3.22 µM; with OVCAR-3 ovarian, 2.74 µM; in the assay with UACC-62 melanoma, 5.17 µM; in the assay with OVCAR-5 ovarian, 3.9 µM.
As to `C#Cc1cccc(NC(=O)C2CCCN(C(=O)CCl)C2)c1` (centres undefined), the GI50 in the assay on KM12 colon, in the assay on RPMI-8226 leukemia, in the assay on EKVX NSCLC, in the assay on SF-268 CNS, with HCC-2998 colon and in the assay with T-47D breast was > 82.5 µM in each case. Moreover, the GI50 in the assay with RXF 393 renal, with OVCAR-3 ovarian, with UACC-62 melanoma and with OVCAR-5 ovarian was > 82.5 µM throughout. The TGI in the assay with KM12 colon, in the assay with RPMI-8226 leukemia, with EKVX NSCLC, in the assay with SF-268 CNS, with HCC-2998 colon and in the assay with T-47D breast was > 82.5 µM in each case. The TGI in the assay on RXF 393 renal, in the assay with OVCAR-3 ovarian, in the assay with UACC-62 melanoma and in the assay with OVCAR-5 ovarian was > 82.5 µM in each case.
In the case of `COc1cccc(C2C(C#N)=C(N)Oc3cc4c(cc32)OCO4)c1` (centres undefined), the GI50 was 0.0404 µM in the assay with KM12 colon; 0.0828 µM in the assay with RPMI-8226 leukemia; 0.28 µM in the assay on EKVX NSCLC; 0.317 µM in the assay on SF-268 CNS; 0.0813 µM in the assay on HCC-2998 colon; 0.0502 µM in the assay on T-47D breast. Further, the GI50 with RXF 393 renal was 0.029 µM; with OVCAR-3 ovarian, 0.0264 µM; with UACC-62 melanoma, 0.0505 µM; with OVCAR-5 ovarian, 0.661 µM. The TGI with KM12 colon was 4.27 µM; with RPMI-8226 leukemia, 29.9 µM; in the assay with EKVX NSCLC it was 58.8 µM; in the assay with SF-268 CNS, > 37.8 µM; in the assay with HCC-2998 colon, 2.52 µM; in the assay with T-47D breast, 28 µM. The TGI in the assay with RXF 393 renal was 0.0927 µM; in the assay with OVCAR-3 ovarian it was 0.0661 µM; with UACC-62 melanoma it was > 53.8 µM; in the assay on OVCAR-5 ovarian it was > 100 µM.
